# Assays:
# [1] = Setting time and exotherm (setting temperature) of cyanoacrylate film polymerized via initiator-impregnated porous applicator tip; assay type: physicochemical; details: Quadrol as initiator in porous tip with 2-OCA formulations A and B
# [2] = potentiometric titration at 25° C. in 0.15 M sodium chloride solution; cited from earlier work
structure (smiles),measurement,setting,value
"CC(O)CN(CCN(CC(C)O)CC(C)O)CC(C)O (stereo not drawn) [Quadrol, N,N,N′,N′-tetrakis(2-hydroxypropyl)ethylenediamine]",cure time,[1],clinically acceptable timeframe
same,pKa1 (tertiary amine group),[2],8.99±0.04
same,pKa2 (quaternary ammonium form),[2],4.30±0.04
